Reference: the supplement of paper PMC13207355

Experiments:
Details in all cases: exposure time: 72 h
[1] = system: E13 (patient-derived glioblastoma stem cells of classical subtype); experiment: surviving fraction (nuclei count normalised to DMSO); higher = more cells surviving (less toxic)
[2] = system: E21 (patient-derived glioblastoma stem cells of mesenchymal subtype); experiment: as above
[3] = system: E28 (patient-derived glioblastoma stem cells of classical subtype); experiment: as above
[4] = system: E31 (patient-derived glioblastoma stem cells of proneural subtype); experiment: as above
[5] = system: E34 (patient-derived glioblastoma stem cells of proneural subtype); experiment: as above
[6] = system: E57 (patient-derived glioblastoma stem cells of mesenchymal subtype); experiment: as above
[7] = system: FT3469 (normal neural stem cell line); experiment: as above
[8] = system: E13; experiment: phenotypic distance (Euclidean, principal components) from DMSO controls (arbitrary units); higher = stronger morphological change
[9] = system: E21; experiment: as above
[10] = system: E28; experiment: as above
[11] = system: E31; experiment: as above
[12] = system: E34; experiment: as above
[13] = system: E57; experiment: as above
[14] = system: FT3469; experiment: as above
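For phenotypic distance (Euclidean, principal components) from DMSO controls in this document: cell Painting imaging in 384-well plates, CellProfiler features reduced to at least 20 principal components, Euclidean distance versus same-plate DMSO vehicle wells (0.1% v/v), median over six images per well.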
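For surviving fraction (nuclei count normalised to DMSO) in this document: nuclei counted by high-content imaging of Hoechst-stained cells in laminin-coated 384-well plates, relative to 0.1% DMSO vehicle wells, with staurosporine as cell-death control.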

COC(=O)Nc1nc2cc(C(=O)c3cccs3)ccc2[nH]1 [Nocodazole]
Details | phenotypic distance | surviving fraction
[1], 4.11523 nM | – | 0.286
[1], 12.34567901 nM | – | 0.309
[1], 37.037 nM | – | 0.238
[1], 111.1111111 nM | – | 0.193
[1], 333.333 nM | – | 0.228
[1], 1000 nM | – | 0.186
[1], 3000 nM | – | 0.178
[2], 4.11523 nM | – | 0.506
[2], 12.34567901 nM | – | 0.54
[2], 37.037 nM | – | 0.116
[2], 111.1111111 nM | – | 0.101
[2], 333.333 nM | – | 0.118
[2], 1000 nM | – | 0.0883
[2], 3000 nM | – | 0.083
[3], 4.11523 nM | – | 0.698
[3], 12.34567901 nM | – | 0.609
[3], 37.037 nM | – | 0.531
[3], 111.1111111 nM | – | 0.353
[3], 333.333 nM | – | 0.428
[3], 1000 nM | – | 0.267
[3], 3000 nM | – | 0.297
[4], 4.11523 nM | – | 0.262
[4], 12.34567901 nM | – | 0.174
[4], 37.037 nM | – | 0.135
[4], 111.1111111 nM | – | 0.0743
[4], 333.333 nM | – | 0.0743
[4], 1000 nM | – | 0.058
[4], 3000 nM | – | 0.0327
[5], 4.11523 nM | – | 0.543
[5], 12.34567901 nM | – | 0.541
[5], 37.037 nM | – | 0.488
[5], 111.1111111 nM | – | 0.469
[5], 333.333 nM | – | 0.394
[5], 1000 nM | – | 0.316
[5], 3000 nM | – | 0.433
[6], 4.11523 nM | – | 0.452
[6], 12.34567901 nM | – | 0.418
[6], 37.037 nM | – | 0.143
[6], 111.1111111 nM | – | 0.067
[6], 333.333 nM | – | 0.0805
[6], 1000 nM | – | 0.0687
[6], 3000 nM | – | 0.104
[7], 4.11523 nM | – | 0.562
[7], 12.34567901 nM | – | 0.573
[7], 37.037 nM | – | 0.619
[7], 111.1111111 nM | – | 0.474
[7], 333.333 nM | – | 0.582
[7], 1000 nM | – | 0.382
[7], 3000 nM | – | 0.353
[8], 4.11523 nM | 6.13 | –
[8], 12.34567901 nM | 4.73 | –
[8], 37.037 nM | 5.56 | –
[8], 111.1111111 nM | 6.89 | –
[8], 333.333 nM | 6.42 | –
[8], 1000 nM | 6.56 | –
[8], 3000 nM | 9.87 | –
[9], 4.11523 nM | 4.87 | –
[9], 12.34567901 nM | 4.76 | –
[9], 37.037 nM | 8.31 | –
[9], 111.1111111 nM | 9.95 | –
[9], 333.333 nM | 9.8 | –
[9], 1000 nM | 8.46 | –
[9], 3000 nM | 9.75 | –
[10], 4.11523 nM | 2.22 | –
[10], 12.34567901 nM | 2.63 | –
[10], 37.037 nM | 2.97 | –
[10], 111.1111111 nM | 3.74 | –
[10], 333.333 nM | 3.59 | –
[10], 1000 nM | 4.6 | –
[10], 3000 nM | 5.85 | –
[11], 4.11523 nM | 4.08 | –
[11], 12.34567901 nM | 3.99 | –
[11], 37.037 nM | 5.49 | –
[11], 111.1111111 nM | 6.17 | –
[11], 333.333 nM | 5.43 | –
[11], 1000 nM | 11.1 | –
[11], 3000 nM | 12 | –
[12], 4.11523 nM | 3.24 | –
[12], 12.34567901 nM | 3.27 | –
[12], 37.037 nM | 4.43 | –
[12], 111.1111111 nM | 4.49 | –
[12], 333.333 nM | 5.97 | –
[12], 1000 nM | 8.12 | –
[12], 3000 nM | 7.56 | –
[13], 4.11523 nM | 5.26 | –
[13], 12.34567901 nM | 5.57 | –
[13], 37.037 nM | 7.85 | –
[13], 111.1111111 nM | 6.23 | –
[13], 333.333 nM | 6.48 | –
[13], 1000 nM | 6.95 | –
[13], 3000 nM | 6.12 | –
[14], 4.11523 nM | 3.38 | –
[14], 12.34567901 nM | 3.38 | –
[14], 37.037 nM | 3.11 | –
[14], 111.1111111 nM | 2.9 | –
[14], 333.333 nM | 3.84 | –
[14], 1000 nM | 5.03 | –
[14], 3000 nM | 4.79 | –

CC(=O)c1cnc2ccc(-c3cc(Cl)c(O)c(Cl)c3)nc2c1N[C@H]1CC[C@H](CN(C)C)CC1 [OTSSP167]
Details | phenotypic distance | surviving fraction
[1], 0.4 nM | – | 0.96
[1], 1.2 nM | – | 0.925
[1], 3.7 nM | – | 0.908
[1], 11.1 nM | – | 0.685
[1], 33.3 nM | – | 0.422
[1], 100 nM | – | 0.205
[1], 300 nM | – | 0.1423
[2], 0.4 nM | – | 0.988
[2], 1.2 nM | – | 1.09
[2], 3.7 nM | – | 0.945
[2], 11.1 nM | – | 0.737
[2], 33.3 nM | – | 0.546
[2], 100 nM | – | 0.317
[2], 300 nM | – | 0.161
[3], 0.4 nM | – | 1.04
[3], 1.2 nM | – | 1.21
[3], 3.7 nM | – | 1.16
[3], 11.1 nM | – | 0.994
[3], 33.3 nM | – | 0.575
[3], 100 nM | – | 0.247
[3], 300 nM | – | 0.233
[4], 0.4 nM | – | 0.94
[4], 1.2 nM | – | 0.896
[4], 3.7 nM | – | 1.02
[4], 11.1 nM | – | 0.913
[4], 33.3 nM | – | 0.59
[4], 100 nM | – | 0.196
[4], 300 nM | – | 0.0607
[5], 0.4 nM | – | 1
[5], 1.2 nM | – | 0.983
[5], 3.7 nM | – | 0.947
[5], 11.1 nM | – | 0.748
[5], 33.3 nM | – | 0.535
[5], 100 nM | – | 0.567
[5], 300 nM | – | 0.384
[6], 0.4 nM | – | 1.43
[6], 1.2 nM | – | 1.46
[6], 3.7 nM | – | 1.48
[6], 11.1 nM | – | 1.23
[6], 33.3 nM | – | 0.626
[6], 100 nM | – | 0.171
[6], 300 nM | – | 0.108
[7], 0.4 nM | – | 1.13
[7], 1.2 nM | – | 1.2
[7], 3.7 nM | – | 1.08
[7], 11.1 nM | – | 0.783
[7], 33.3 nM | – | 0.638
[7], 100 nM | – | 0.502
[7], 300 nM | – | 0.45
[8], 0.4 nM | 1.66 | –
[8], 1.2 nM | 1.67 | –
[8], 3.7 nM | 2.455 | –
[8], 11.1 nM | 3.33 | –
[8], 33.3 nM | 6.59 | –
[8], 100 nM | 7.76 | –
[8], 300 nM | 8.64 | –
[9], 0.4 nM | 1.7 | –
[9], 1.2 nM | 2.06 | –
[9], 3.7 nM | 2.41 | –
[9], 11.1 nM | 2.49 | –
[9], 33.3 nM | 4.22 | –
[9], 100 nM | 4.87 | –
[9], 300 nM | 6.25 | –
[10], 0.4 nM | 1.32 | –
[10], 1.2 nM | 1.49 | –
[10], 3.7 nM | 1.75 | –
[10], 11.1 nM | 2.62 | –
[10], 33.3 nM | 4.37 | –
[10], 100 nM | 4.36 | –
[10], 300 nM | 4.295 | –
[11], 0.4 nM | 1.92 | –
[11], 1.2 nM | 2.29 | –
[11], 3.7 nM | 2.8 | –
[11], 11.1 nM | 2.81 | –
[11], 33.3 nM | 2.5 | –
[11], 100 nM | 5.33 | –
[11], 300 nM | 7.69 | –
[12], 0.4 nM | 1.46 | –
[12], 1.2 nM | 1.96 | –
[12], 3.7 nM | 1.73 | –
[12], 11.1 nM | 2.43 | –
[12], 33.3 nM | 3.89 | –
[12], 100 nM | 2.89 | –
[12], 300 nM | 2.9 | –
[13], 0.4 nM | 1.81 | –
[13], 1.2 nM | 2.24 | –
[13], 3.7 nM | 2.97 | –
[13], 11.1 nM | 3.48 | –
[13], 33.3 nM | 4.61 | –
[13], 100 nM | 7.8122 | –
[13], 300 nM | 5.83 | –
[14], 0.4 nM | 2.21 | –
[14], 1.2 nM | 2.77 | –
[14], 3.7 nM | 3.26 | –
[14], 11.1 nM | 3.53 | –
[14], 33.3 nM | 4.08 | –
[14], 100 nM | 4.14 | –
[14], 300 nM | 3.137 | –
